This is an account of results in US10800753B2, “Tetrahydrothiophene-based GABA aminotransferase inactivators and analogs thereof for treating neurological disorders” (Northwestern University, priority 2015, dated 2020).

Series [1] concerns multiple-hit rat model of infantile spasms. Conditions: cited from earlier work.
The subject of series [2] is aspartate aminotransferase. Conditions: off-target enzyme, prior art; cited from earlier work.
In series [3] the test system is GABA-AT. Conditions: cited from earlier work.
In series [4] the target is CYP2C9 (Homo sapiens (Human), UniProt P11712). The series can be described thus: Inhibition of microsomal cytochromes P450: CYP2C9. The conditions noted are these: HLM, diclofenac substrate, 10 μM, 10 min at 37° C. Format: in vitro ADME. The procedure: (§1) Inhibition of Microsomal Cytochromes P450. The experiments were performed by Eurofins Panlabs (Redmond, Wash. 98052, USA). CYP1A inhibition (HLM, phenacetin substrate), CYP2B6 inhibition (HLM, bupropion substrate), CYP2C8 inhibition (HLM, paclitaxel substrate), CYP2C9 inhibition (HLM, diclofenac substrate), CYP2C19 inhibition (HLM, omeprazole substrate), CYP2D6 inhibition (HLM, dextromethorphan substrate), and CYP3A inhibition (HLM, midazolam and testosterone substrates) were tested. The test concentration was 10 μM. The incubation time was 10 min at 37° C. The detection method was by HPLC-MS/MS. The experiments were duplicated, and the % inhibition of the control values was averaged (FIG. 10).

For series [5], the target named is CYP2C19 (Homo sapiens (Human), UniProt P33261). As to the kind of experiment: Inhibition of microsomal cytochromes P450: CYP2C19. Format: in vitro ADME. The conditions noted are these: HLM, omeprazole substrate, 10 μM, 10 min at 37° C. The procedure: as §1
The test system of series [6] is CYP1A. The series can be described thus: Inhibition of microsomal cytochromes P450: CYP1A. It counts as in vitro ADME, human. Conditions: HLM, phenacetin substrate, 10 μM, 10 min at 37° C. The procedure:
as §1

Series [7] deals with CYP2C8 (Homo sapiens (Human), UniProt P10632). The series can be described thus: Inhibition of microsomal cytochromes P450: CYP2C8. Conditions: HLM, paclitaxel substrate, 10 μM, 10 min at 37° C. It counts as in vitro ADME. The procedure:
as §1

Series [8] in a line: Metabolic stability in human liver microsomes. It counts as in vitro ADME. The conditions noted are these: over 60 minutes, 0.1 μM, 37° C., LC-MS/MS. The procedure: Measurement of the metabolic stability in HLM was accomplished by incubating 17 with the microsomes and monitoring its disappearance with time using LC-MS/MS. Imipramine, propranolol, terfenadine, and verapamil were run in similar condition as controls. […] Metabolic Stability in Human Liver Microsomes. The experiments were performed by Eurofins Panlabs (Redmond, Wash. 98052, USA). The test concentration of 17 was 0.1 μM. […] The detection method was by LC-MS/MS. Imipramine, propranolol, terfenadine, and verapamil were run in similar condition as controls.

Series [9] addresses hERG channel (Homo sapiens (Human), UniProt Q12809). The series can be described thus: Inhibition of the hERG channel, automated whole-cell patch clamp. The conditions noted are these: hERG CHO-K1 cell line; 0.1 μM, 1 μM, 10 μM; 5 min at room temperature. Format: cell-based. The procedure:
Inhibition of the hERG Channel. The experiments were performed by Eurofins Panlabs (Redmond, Wash. 98052, USA). hERG CHO-K1 cell line was used. The test concentrations were 0.1 μM, 1 μM, and 10 μM. The incubation time was 5 min at room temperature, cumulatively. The detection method used an automated whole-cell patch clamp. The experiments were duplicated, and the % inhibition of the tail current was averaged (FIG. 9).

Series [10] has as its target CYP2D6 (Homo sapiens (Human), UniProt P10635). The series can be described thus: Inhibition of microsomal cytochromes P450: CYP2D6. Format: in vitro ADME. Conditions: HLM, dextromethorphan substrate, 10 μM, 10 min at 37° C. The procedure: as §1
The test system of series [11] is CYP3A. As to the kind of experiment: Inhibition of microsomal cytochromes P450: CYP3A. Format: in vitro ADME, human. Conditions: HLM, midazolam and testosterone substrates, 10 μM, 10 min at 37° C. The procedure: as §1
Series [12] concerns the target CYP2B6 (Homo sapiens (Human), UniProt P20813). The series can be described thus: Inhibition of microsomal cytochromes P450: CYP2B6. It counts as in vitro ADME. The conditions noted are these: HLM, bupropion substrate, 10 μM, 10 min at 37° C. The procedure: as §1
The target of series [13] is GABA aminotransferase (GABA-AT) (Sus scrofa (Pig), UniProt P80147). The series can be described thus: Inhibition of GABA-AT, coupled assay with SSDH (IC50 to Ki by Cheng-Prusoff). Conditions: competitive inhibitor of GABA-AT. It counts as biochemical. The procedure: GABA-AT was isolated and purified from pig brain by a published procedure.
Inhibition constants were determined by monitoring GABA-AT activity in the presence of 0-50 mM concentrations of synthesized analogues using a coupled assay with the enzyme succinic semialdehyde dehydrogenase (SSDH). The assay solution consisted of 10 mM GABA, 5 mM α ketoglutarate, 1 mM NADP^+, 5 mM β-mercaptoethanol, and excess SSDH in 50 mM potassium pyrophosphate buffer, pH 8.5. Enzyme activity was determined by observing the change in absorbance at 340 nm at 25° C. IC50 values were obtained using non-linear regression in GraphPad Prism5 software. […] (Yung-Chi, C.; Prusoff, W. H. Biochem. Pharmacol. 1973, 22, 3099-3108.)

Chain of CYP2D6 (P10635 whole entry): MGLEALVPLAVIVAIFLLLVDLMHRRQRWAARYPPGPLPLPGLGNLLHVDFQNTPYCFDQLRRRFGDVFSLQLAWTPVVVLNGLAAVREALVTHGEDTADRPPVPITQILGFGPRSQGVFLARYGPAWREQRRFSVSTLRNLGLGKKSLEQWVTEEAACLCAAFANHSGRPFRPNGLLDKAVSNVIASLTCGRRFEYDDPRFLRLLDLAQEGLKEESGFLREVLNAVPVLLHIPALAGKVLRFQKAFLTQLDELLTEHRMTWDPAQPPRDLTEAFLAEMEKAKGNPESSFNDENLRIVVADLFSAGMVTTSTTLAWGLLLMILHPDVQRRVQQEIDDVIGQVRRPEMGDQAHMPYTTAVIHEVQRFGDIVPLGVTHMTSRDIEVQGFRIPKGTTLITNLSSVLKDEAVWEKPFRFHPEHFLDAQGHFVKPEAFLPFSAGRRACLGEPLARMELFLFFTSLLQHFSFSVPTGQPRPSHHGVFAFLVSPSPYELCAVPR
Chain of CYP2C19 (P33261 whole entry): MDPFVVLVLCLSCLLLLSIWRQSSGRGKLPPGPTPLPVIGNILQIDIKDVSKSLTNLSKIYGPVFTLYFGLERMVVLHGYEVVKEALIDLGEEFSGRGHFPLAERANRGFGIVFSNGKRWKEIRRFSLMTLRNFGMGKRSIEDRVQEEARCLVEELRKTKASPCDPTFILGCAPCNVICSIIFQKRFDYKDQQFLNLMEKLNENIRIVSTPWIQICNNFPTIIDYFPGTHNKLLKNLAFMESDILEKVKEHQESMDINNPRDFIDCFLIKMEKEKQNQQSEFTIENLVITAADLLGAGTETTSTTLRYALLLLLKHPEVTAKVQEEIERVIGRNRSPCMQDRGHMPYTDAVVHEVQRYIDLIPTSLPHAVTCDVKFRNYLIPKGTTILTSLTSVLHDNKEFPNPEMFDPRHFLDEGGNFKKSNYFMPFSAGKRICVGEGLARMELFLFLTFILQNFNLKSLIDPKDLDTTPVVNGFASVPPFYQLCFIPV
Chain of hERG channel (Q12809 whole entry): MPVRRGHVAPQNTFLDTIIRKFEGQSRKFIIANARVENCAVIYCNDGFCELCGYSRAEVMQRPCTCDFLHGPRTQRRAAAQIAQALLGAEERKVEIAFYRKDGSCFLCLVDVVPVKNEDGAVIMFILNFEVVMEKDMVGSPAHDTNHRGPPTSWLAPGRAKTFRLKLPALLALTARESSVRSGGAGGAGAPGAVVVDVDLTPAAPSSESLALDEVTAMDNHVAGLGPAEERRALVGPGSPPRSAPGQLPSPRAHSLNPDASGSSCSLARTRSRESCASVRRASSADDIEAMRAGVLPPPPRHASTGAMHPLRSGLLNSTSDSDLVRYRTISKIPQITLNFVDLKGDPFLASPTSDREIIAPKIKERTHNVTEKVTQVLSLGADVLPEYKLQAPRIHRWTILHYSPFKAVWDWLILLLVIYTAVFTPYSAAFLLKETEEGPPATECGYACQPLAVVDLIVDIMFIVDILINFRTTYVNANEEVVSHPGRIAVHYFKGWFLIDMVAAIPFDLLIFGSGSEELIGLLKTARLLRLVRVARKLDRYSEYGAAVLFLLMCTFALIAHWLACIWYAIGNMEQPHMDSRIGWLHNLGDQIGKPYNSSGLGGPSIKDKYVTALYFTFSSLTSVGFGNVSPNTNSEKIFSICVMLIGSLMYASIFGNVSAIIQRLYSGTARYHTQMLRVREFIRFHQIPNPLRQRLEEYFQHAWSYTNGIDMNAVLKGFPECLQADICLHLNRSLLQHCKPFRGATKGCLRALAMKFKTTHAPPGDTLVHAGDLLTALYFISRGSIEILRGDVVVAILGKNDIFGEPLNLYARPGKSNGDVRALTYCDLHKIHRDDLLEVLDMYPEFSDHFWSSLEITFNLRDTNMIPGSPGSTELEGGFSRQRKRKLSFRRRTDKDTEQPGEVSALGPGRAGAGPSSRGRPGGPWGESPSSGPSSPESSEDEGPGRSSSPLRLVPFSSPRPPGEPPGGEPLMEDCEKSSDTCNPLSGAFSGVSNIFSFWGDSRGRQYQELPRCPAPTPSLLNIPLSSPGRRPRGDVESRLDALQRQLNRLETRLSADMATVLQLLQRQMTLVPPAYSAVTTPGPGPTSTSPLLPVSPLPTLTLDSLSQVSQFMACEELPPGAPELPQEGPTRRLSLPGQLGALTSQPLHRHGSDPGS
Chain of GABA aminotransferase (GABA-AT) (P80147 29-500): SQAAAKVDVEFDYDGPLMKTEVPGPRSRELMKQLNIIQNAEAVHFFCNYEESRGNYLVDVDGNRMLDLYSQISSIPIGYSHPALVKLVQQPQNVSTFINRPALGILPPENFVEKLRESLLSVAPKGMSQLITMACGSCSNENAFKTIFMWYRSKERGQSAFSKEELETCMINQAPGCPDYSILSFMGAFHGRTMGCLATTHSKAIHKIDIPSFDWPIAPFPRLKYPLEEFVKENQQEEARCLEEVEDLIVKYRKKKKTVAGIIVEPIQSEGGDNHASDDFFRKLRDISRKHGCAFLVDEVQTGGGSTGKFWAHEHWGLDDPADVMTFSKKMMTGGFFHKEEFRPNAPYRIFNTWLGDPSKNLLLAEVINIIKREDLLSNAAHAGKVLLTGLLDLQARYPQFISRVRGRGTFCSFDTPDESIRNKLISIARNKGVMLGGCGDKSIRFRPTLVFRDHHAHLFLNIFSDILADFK
Chain of CYP2B6 (P20813 whole entry): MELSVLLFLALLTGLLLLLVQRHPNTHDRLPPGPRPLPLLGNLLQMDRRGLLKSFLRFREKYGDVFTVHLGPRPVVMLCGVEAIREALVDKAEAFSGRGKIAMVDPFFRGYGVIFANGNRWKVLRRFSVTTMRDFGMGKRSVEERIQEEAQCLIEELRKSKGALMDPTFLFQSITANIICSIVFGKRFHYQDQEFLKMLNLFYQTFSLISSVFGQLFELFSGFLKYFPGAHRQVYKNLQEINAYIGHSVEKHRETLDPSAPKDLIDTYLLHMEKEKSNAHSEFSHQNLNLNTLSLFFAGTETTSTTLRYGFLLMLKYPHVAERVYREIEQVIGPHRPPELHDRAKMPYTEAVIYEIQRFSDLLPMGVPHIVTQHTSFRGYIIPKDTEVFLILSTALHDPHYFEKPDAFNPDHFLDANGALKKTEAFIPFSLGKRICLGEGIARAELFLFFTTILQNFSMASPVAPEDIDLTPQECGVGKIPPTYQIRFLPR
Chain of CYP2C8 (P10632 whole entry): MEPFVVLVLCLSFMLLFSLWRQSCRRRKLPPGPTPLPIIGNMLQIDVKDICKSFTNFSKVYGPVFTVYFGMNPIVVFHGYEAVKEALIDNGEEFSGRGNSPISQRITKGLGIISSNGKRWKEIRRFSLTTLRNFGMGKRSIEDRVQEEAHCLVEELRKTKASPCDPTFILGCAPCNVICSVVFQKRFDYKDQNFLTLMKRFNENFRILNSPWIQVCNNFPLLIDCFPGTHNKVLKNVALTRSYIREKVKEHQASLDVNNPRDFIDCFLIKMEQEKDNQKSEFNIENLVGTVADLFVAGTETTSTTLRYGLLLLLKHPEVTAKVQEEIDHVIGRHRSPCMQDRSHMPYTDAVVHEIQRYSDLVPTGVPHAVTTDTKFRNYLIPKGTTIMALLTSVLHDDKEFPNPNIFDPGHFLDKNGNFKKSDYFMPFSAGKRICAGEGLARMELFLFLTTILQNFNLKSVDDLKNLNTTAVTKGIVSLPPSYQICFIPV
Chain of CYP2C9 (P11712 whole entry): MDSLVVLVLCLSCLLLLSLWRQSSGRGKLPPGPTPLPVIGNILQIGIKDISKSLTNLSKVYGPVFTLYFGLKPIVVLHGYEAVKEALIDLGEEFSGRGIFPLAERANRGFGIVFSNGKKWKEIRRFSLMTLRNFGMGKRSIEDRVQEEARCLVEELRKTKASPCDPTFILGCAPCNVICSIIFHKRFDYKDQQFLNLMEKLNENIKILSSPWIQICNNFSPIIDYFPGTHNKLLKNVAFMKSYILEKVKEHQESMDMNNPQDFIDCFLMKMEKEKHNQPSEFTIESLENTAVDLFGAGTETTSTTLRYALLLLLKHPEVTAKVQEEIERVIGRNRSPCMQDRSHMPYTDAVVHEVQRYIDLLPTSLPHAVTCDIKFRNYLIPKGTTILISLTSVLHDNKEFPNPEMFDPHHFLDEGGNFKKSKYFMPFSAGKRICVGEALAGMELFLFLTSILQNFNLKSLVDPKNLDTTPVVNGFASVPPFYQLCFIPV

For the molecule `C=CC(N)CCC(=O)O` (stereo not shown) [vigabatrin], in [1], the “time spasms suppression stayed effective” value is recorded as 1 days.
For `N[C@H]1C=C(C(=O)O)SC1` [(S)-4-Amino-4,5-dihydro-2-thiophenecarboxylic acid], the “inactivation or inhibition of aspartate aminotransferase” value in series [2] is “inactivator of aspartate aminotransferase”. Also, the “inactivation of GABA-AT (in words, prior art)” value in [3] is reported as “known inactivator of GABA-AT”.
For `Cl.N[C@@H]1CS[C@H](C(=O)O)C1` [Compound 17, (2S,4S)-4-Aminotetrahydrothiophene-2-carboxylic acid hydrochloride], the CYP2C9 inhibition result in series [4] is “did not inhibit or induce”. Besides, the CYP2C19 inhibition entry in [5] is “did not inhibit or induce”. Further, the CYP1A inhibition result in series [6] is reported as “did not inhibit or induce”. In addition, the CYP2C8 inhibition entry in series [7] is recorded as “did not inhibit or induce”. Moreover, the “metabolized in HLM” value in series [8] is listed as “less than 20%”. In addition, the “inhibition of the hERG channel (tail current)” value in [9] is recorded as “did not inhibit”. Moreover, the CYP2D6 inhibition entry in series [10] is reported as “did not inhibit or induce”. The CYP3A inhibition entry in [11] is reported as “did not inhibit or induce”. In addition, in [12], the CYP2B6 inhibition result was “did not inhibit or induce”.
The molecule “(2S,4S)-4-aminotetrahydrofuran-2-carboxylic acid (40) and (2R,4R)-4-aminotetrahydrofuran-2-carboxylic acid (51) [mixture of enantiomers 40 and 51]” displayed an inhibition constant (Ki) in series [13] of 430 µM.

In general, Ki refers to the dissociation constant of the complex between target and ligand, obtained from inhibition or displacement. The low end stands for a stronger hold on the target, the high end for a looser hold on the target.
